# Biological target: T1, CGRP receptor (SK-N-MC cell membranes) (Homo sapiens, UniProt O60894+Q16602)
# T1 construct: endogenous in cells; host or cells: SK-N-MC cells (membrane homogenate)
# Test: CGRP Binding Assay ([125I]-CGRP radioligand binding, SK-N-MC homogenate)
# Conditions: displacement of [125I]-CGRP, SK-N-MC homogenate; read-out: CGRP binding IC50
# T1 sequence (Q16602 23-461): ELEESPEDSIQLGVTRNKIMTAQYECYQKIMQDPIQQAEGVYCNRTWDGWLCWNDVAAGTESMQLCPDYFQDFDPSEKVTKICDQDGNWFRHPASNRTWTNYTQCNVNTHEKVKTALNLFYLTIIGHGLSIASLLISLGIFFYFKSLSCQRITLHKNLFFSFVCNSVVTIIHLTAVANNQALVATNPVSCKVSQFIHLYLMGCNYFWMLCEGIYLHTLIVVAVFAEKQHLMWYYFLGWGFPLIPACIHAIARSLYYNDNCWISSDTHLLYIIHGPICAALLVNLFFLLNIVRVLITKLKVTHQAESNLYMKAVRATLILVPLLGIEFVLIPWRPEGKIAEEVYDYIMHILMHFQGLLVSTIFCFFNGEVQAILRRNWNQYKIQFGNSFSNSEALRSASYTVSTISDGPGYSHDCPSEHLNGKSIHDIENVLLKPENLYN
# T1 sequence (O60894 27-148): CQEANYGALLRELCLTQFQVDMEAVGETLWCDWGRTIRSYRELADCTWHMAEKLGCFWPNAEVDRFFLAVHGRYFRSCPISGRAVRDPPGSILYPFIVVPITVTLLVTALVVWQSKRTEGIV
row,Structure (SMILES),IC50 [nM]
1,"O=C(C[C@H](NCc1c[nH]cn1)C(=O)N1CCC(N2CCCCC2)CC1)N1CCC(N2Cc3ccccc3NC2=O)CC1 [Example 98, (L)-1-[1,4′]Bipiperidinyl-1′-yl-2-[(1H-imidazol-4-ylmethyl)-amino]-4-[4-(2-oxo-1,4-dihydro-2H-quinazolin-3-yl)-piperidin-1-yl]-butane-1,4-dione]",> 1000
2,"COC(=O)C(CN1Cc2cn[nH]c2C(C)(C)C1)NC(=O)N1CCC(N2Cc3ccccc3NC2=O)CC1 (racemic) [Example 55, (±)-3-(7,7-Dimethyl-1,4,6,7-tetrahydro-pyrazolo[4,3-c]pyridin-5-yl)-2-{[4-(2-oxo-1,4-dihydro-2H-quinazolin-3-yl)-piperidine-1-carbonyl]-amino}-propionic acid methyl ester]",100 to 1000
3,"Cc1cc(CC(NC(=O)N2CCC3(CC2)CC(=O)Nc2ccccc23)C(=O)N2CCCCC2)cc2cn[nH]c12 (racemic) [Example 32, (±)-1-(7-Methyl-1H-indazol-5-ylmethyl)-2-[1-piperidinyl]-2-oxoethyl]3′,4′-dihydro-2′-oxospiro-[piperidine-4,4′-(1H)-quinoline]-1-carboxamide]",100 to 1000
4,O=C(C[C@H](NC(=O)n1c2ccccc2c2ccccc21)C(=O)N1CCC(N2CCCCC2)CC1)N1CCC(N2Cc3ccccc3NC2=O)CC1 [Example 115],100 to 1000
5,O=C(Nc1c(F)cccc1F)N[C@@H](CC(=O)N1CCC(N2Cc3ccccc3NC2=O)CC1)C(=O)N1CCC(N2CCCCC2)CC1 [Example 163],100 to 1000
6,COC(=O)[C@H](Cc1ccccc1)NC(=O)N[C@@H](CC(=O)N1CCC(N2Cc3ccccc3NC2=O)CC1)C(=O)N1CCC(N2CCCCC2)CC1 [Example 166],100 to 1000
7,CCCN1CCN(C(=O)C(Cc2ccc3[nH]ncc3c2)NC(=O)N2CCC(N3Cc4ccccc4NC3=O)CC2)CC1 (stereo not drawn) [Example 40d],100 to 1000
8,"CCc1cc(CC(NC(=O)N2CCC(N3Cc4ccccc4NC3=O)CC2)C(=O)OC)cc2cn[nH]c12 (racemic) [Example 44, (±)-3-(7-Ethyl-1H-indazol-5-yl)-2-{[4-(2-oxo-1,4-dihydro-2H-quinazolin-3-yl)-piperidine-1-carbonyl]-amino}-propionic acid methyl ester]",100 to 1000
9,O=C(N[C@@H](CC(=O)N1CCC(N2Cc3ccccc3NC2=O)CC1)C(=O)N1CCC(N2CCCCC2)CC1)c1cccc(Cl)c1 [Example 129],100 to 1000
10,O=C(Nc1ccc(F)cc1)N[C@@H](CC(=O)N1CCC(N2Cc3ccccc3NC2=O)CC1)C(=O)N1CCC(N2CCCCC2)CC1 [Example 180],100 to 1000
11,O=C(Nc1cc(Cl)ccc1Cl)N[C@@H](CC(=O)N1CCC(N2Cc3ccccc3NC2=O)CC1)C(=O)N1CCC(N2CCCCC2)CC1 [Example 173],100 to 1000
12,O=C(N[C@@H](CC(=O)N1CCC(N2Cc3ccccc3NC2=O)CC1)C(=O)N1CCC(N2CCCCC2)CC1)c1ccc([N+](=O)[O-])o1 [Example 124],100 to 1000
13,CCOc1ccccc1NC(=O)N[C@@H](CC(=O)N1CCC(N2Cc3ccccc3NC2=O)CC1)C(=O)N1CCC(N2CCCCC2)CC1 [Example 175],100 to 1000
14,O=C(Nc1cccc(C(F)(F)F)c1)N[C@@H](CC(=O)N1CCC(N2Cc3ccccc3NC2=O)CC1)C(=O)N1CCC(N2CCCCC2)CC1 [Example 153],100 to 1000
15,CCCCN1CCN(C(=O)C(Cc2ccc3[nH]ncc3c2)NC(=O)N2CCC(N3Cc4ccccc4NC3=O)CC2)CC1 (stereo not drawn) [Example 40c],> 1000
16,O=C(N[C@@H](CC(=O)N1CCC(N2Cc3ccccc3NC2=O)CC1)C(=O)N1CCC(N2CCCCC2)CC1)N[C@@H]1C[C@H]1c1ccccc1 [Example 154],100 to 1000
17,O=C(N[C@@H](CC(=O)N1CCC(N2Cc3ccccc3NC2=O)CC1)C(=O)N1CCC(N2CCCCC2)CC1)c1cccs1 [Example 116],100 to 1000
18,O=C(NCCc1ccccc1)N[C@@H](CC(=O)N1CCC(N2Cc3ccccc3NC2=O)CC1)C(=O)N1CCC(N2CCCCC2)CC1 [Example 138],100 to 1000
19,Cc1cc(Cl)ccc1NC(=O)N[C@@H](CC(=O)N1CCC(N2Cc3ccccc3NC2=O)CC1)C(=O)N1CCC(N2CCCCC2)CC1 [Example 191],100 to 1000
20,O=C(N[C@@H](CC(=O)N1CCC(N2Cc3ccccc3NC2=O)CC1)C(=O)N1CCC(N2CCCCC2)CC1)c1ccc2c(c1)OCO2 [Example 114],100 to 1000

# Other lines, results leading:
row,IC50 [nM],Structure (SMILES)
1,10 to 100,"CC(C)CN1CCN(C(=O)C(Cc2ccc3[nH]ncc3c2)NC(=O)N2CCC(n3c(=O)[nH]c4ccccc43)CC2)CC1 (racemic) [Example 9, (±)-4-(2-Oxo-2,3-dihydro-benzoimidazol-1-yl)-piperidine-1-carboxylic acid[1-(1H-indazol-5-ylmethyl)-2-(4-isobutyl-piperazin-1-yl)-2-oxo-ethyl]-amide]"
2,100 to 1000,"O=C(C[C@H](Nc1cc(Cl)ncn1)C(=O)N1CCC(N2CCCCC2)CC1)N1CCC(N2Cc3ccccc3NC2=O)CC1 [Example 88, (L)-1-[1,4′]Bipiperidinyl-1′-yl-2-(6-chloro-pyrimidin-4-ylamino)-4-[4-(2-oxo-1,4-dihydro-2H-quinazolin-3-yl)-piperidin-1-yl]-butane-1,4-dione]"
3,10 to 100,"Cc1nc(N[C@@H](CC(=O)N2CCC(N3Cc4ccccc4NC3=O)CC2)C(=O)N2CCC(N3CCCCC3)CC2)nc2nn[nH]c12 [Example 92, (L)-1-[1,4′]Bipiperidinyl-1′-yl-2-(7-methyl-1H-[1,2,3]triazolo[4,5-d]pyrimidin-5-ylamino)-4-[4-(2-oxo-1,4-dihydro-2H-quinazolin-3-yl)-piperidin-1-yl]-butane-1,4-dione]"
4,10 to 100,"Cc1cc(CC(NC(=O)N2CCC3(CC2)OC(=O)Nc2ccccc23)C(=O)N(C)C)cc2cn[nH]c12 (racemic) [Example 27, (±)-[1-Dimethylcarbamoyl-2-(7-methyl-1H-indazol-5-yl)-ethyl]-1′,2′-dihydro-2′-oxospiro-[4H-3′,1-benzoxazine-4,4′-piperidine]-1-carboxamide]"
5,< 10,"Cc1cc(CC(NC(=O)N2CCC3(CC2)CC(=O)Nc2ccccc23)C(=O)N2CCC(N3CCCCC3)CC2)cc2cn[nH]c12 (racemic) [Example 31, (±)-1-(7-Methyl-1H-indazol-5-ylmethyl)-2-[1,4-bipiperidin]-1-yl-2-oxoethyl]3′,4′-dihydro-2′-oxospiro-[piperidine-4,4′-(1H)-quinoline]-1-carboxamide]"
6,< 10,"Cc1cc(CC(NC(=O)N2CCC(N3Cc4ccccc4NC3=O)CC2)C(=O)OC2CCN(Cc3ccccc3)CC2)cc2cn[nH]c12 (stereo not drawn) [Example 41b, 3-(7-Methyl-1H-indazol-5-yl)-2-{[4-(2-oxo-1,4-dihydro-2H-quinazolin-3-yl)-piperidine-1-carbonyl]-amino}-propionic acid 1-benzyl-piperidin-4-yl ester]"
7,100 to 1000,O=C(N[C@@H](CC(=O)N1CCC(N2Cc3ccccc3NC2=O)CC1)C(=O)N1CCC(N2CCCCC2)CC1)c1ccc(F)c(F)c1 [Example 102]
8,10 to 100,Cc1ccc(NC(=O)N[C@@H](CC(=O)N2CCC(N3Cc4ccccc4NC3=O)CC2)C(=O)N2CCC(N3CCCCC3)CC2)cc1C [Example 158]
9,100 to 1000,Cc1cccc(NC(=O)N[C@@H](CC(=O)N2CCC(N3Cc4ccccc4NC3=O)CC2)C(=O)N2CCC(N3CCCCC3)CC2)c1C [Example 151]
10,10 to 100,O=C(Nc1cccc(Cl)c1Cl)N[C@@H](CC(=O)N1CCC(N2Cc3ccccc3NC2=O)CC1)C(=O)N1CCC(N2CCCCC2)CC1 [Example 148]
11,< 10,"Cc1cc(CC(NC(=O)N2CCC(N3Cc4ccccc4NC3=O)CC2)C(=O)OC2CCN(C)CC2)cc2cn[nH]c12 (stereo not drawn) [Example 41c, 3-(7-Methyl-1H-indazol-5-yl)-2-{[4-(2-oxo-1,4-dihydro-2H-quinazolin-3-yl)-piperidine-1-carbonyl]-amino}-propionic acid 1-methyl-piperidin-4-yl ester]"
12,100 to 1000,COc1cc(C(=O)N[C@@H](CC(=O)N2CCC(N3Cc4ccccc4NC3=O)CC2)C(=O)N2CCC(N3CCCCC3)CC2)cc(OC)c1OC [Example 128]
13,100 to 1000,O=C(N[C@@H](CC(=O)N1CCC(N2Cc3ccccc3NC2=O)CC1)C(=O)N1CCC(N2CCCCC2)CC1)c1cccc(OC(F)(F)F)c1 [Example 121]
14,10 to 100,O=C(Nc1ccc(Cl)cc1Cl)N[C@@H](CC(=O)N1CCC(N2Cc3ccccc3NC2=O)CC1)C(=O)N1CCC(N2CCCCC2)CC1 [Example 161]
15,10 to 100,CC(NC(=O)N[C@@H](CC(=O)N1CCC(N2Cc3ccccc3NC2=O)CC1)C(=O)N1CCC(N2CCCCC2)CC1)c1cccc2ccccc12 (stereo partly drawn) [Example 199]
16,10 to 100,COc1cccc(NC(=O)N[C@@H](CC(=O)N2CCC(N3Cc4ccccc4NC3=O)CC2)C(=O)N2CCC(N3CCCCC3)CC2)c1 [Example 150]
17,< 10,"Cc1cc(CC(NC(=O)N2CCC3(CC2)OC(=O)Nc2ccccc23)C(=O)N2CCN(c3ccncc3)CC2)cc2cn[nH]c12 (racemic) [Example 29, (±)-1′,2′-Dihydro-2′-oxospiro-[4H-3′,1-benzoxazine-4,4′-piperidine-1-carboxylic acid[1-(7-methyl-1H-indazol-5-ylmethyl)-2-oxo-2-(4-pyridin-4-yl-piperazin-1-yl)-ethyl]-amide]"

# Biological target: T2, human CGRP receptor (SK-N-MC cells) (Homo sapiens, UniProt O60894+Q16602)
# T2 construct: SK-N-MC cells that endogenously express the human CGRP receptor; endogenous in cells; host or cells: SK-N-MC cells
# Test: Cyclic AMP Assay, functional antagonism of CGRP-induced cyclic AMP formation
# Format: cell-based
# Conditions: SK-N-MC cells, 0.3 nM CGRP; read-out: cAMP Function IC50
# Method: Functional Antagonism. Antagonism of the compounds of invention was determined by measuring the formation of cyclic AMP (adenosine 3′5′-cyclic monophosphate) in SK-N-MC cells that endogenously express the human CGRP receptor. […] For cyclic AMP measurements SK-N-MC cells were incubated with 0.3 nM CGRP alone or in the presence of various concentrations of the compounds of invention for 30 min at room temperature. […] Cyclic AMP was extracted using the lysis reagent and its concentration was determined by radioimmunoassay using RPA559 cAMP SPA Direct Screening Assay Kit (Amersham Pharmacia Biotech). IC50 values were calculated using Excel fit.
# T2 sequence (Q16602 23-461): as the sequence (Q16602 23-461) above
# T2 sequence (O60894 27-148): as the sequence (O60894 27-148) above
row,IC50 [nM],Structure (SMILES)
1,10 to 100,"CC(C)CN1CCN(C(=O)C(Cc2ccc3[nH]ncc3c2)NC(=O)N2CCC(n3c(=O)[nH]c4ccccc43)CC2)CC1 (racemic) [Example 9, (±)-4-(2-Oxo-2,3-dihydro-benzoimidazol-1-yl)-piperidine-1-carboxylic acid[1-(1H-indazol-5-ylmethyl)-2-(4-isobutyl-piperazin-1-yl)-2-oxo-ethyl]-amide]"
2,10 to 100,"O=C(C[C@H](Nc1cc(Cl)ncn1)C(=O)N1CCC(N2CCCCC2)CC1)N1CCC(N2Cc3ccccc3NC2=O)CC1 [Example 88, (L)-1-[1,4′]Bipiperidinyl-1′-yl-2-(6-chloro-pyrimidin-4-ylamino)-4-[4-(2-oxo-1,4-dihydro-2H-quinazolin-3-yl)-piperidin-1-yl]-butane-1,4-dione]"
3,100 to 1000,"Cc1nc(N[C@@H](CC(=O)N2CCC(N3Cc4ccccc4NC3=O)CC2)C(=O)N2CCC(N3CCCCC3)CC2)nc2nn[nH]c12 [Example 92, (L)-1-[1,4′]Bipiperidinyl-1′-yl-2-(7-methyl-1H-[1,2,3]triazolo[4,5-d]pyrimidin-5-ylamino)-4-[4-(2-oxo-1,4-dihydro-2H-quinazolin-3-yl)-piperidin-1-yl]-butane-1,4-dione]"
4,100 to 1000,"Cc1cc(CC(NC(=O)N2CCC3(CC2)OC(=O)Nc2ccccc23)C(=O)N(C)C)cc2cn[nH]c12 (racemic) [Example 27, (±)-[1-Dimethylcarbamoyl-2-(7-methyl-1H-indazol-5-yl)-ethyl]-1′,2′-dihydro-2′-oxospiro-[4H-3′,1-benzoxazine-4,4′-piperidine]-1-carboxamide]"
5,< 10,"Cc1cc(CC(NC(=O)N2CCC3(CC2)CC(=O)Nc2ccccc23)C(=O)N2CCC(N3CCCCC3)CC2)cc2cn[nH]c12 (racemic) [Example 31, (±)-1-(7-Methyl-1H-indazol-5-ylmethyl)-2-[1,4-bipiperidin]-1-yl-2-oxoethyl]3′,4′-dihydro-2′-oxospiro-[piperidine-4,4′-(1H)-quinoline]-1-carboxamide]"

# From patent US7842808B2, “Anti-migraine spirocycles” (Bristol-Myers Squibb Company, priority 2002, dated 2010)
